Laboratory results: patent US20070166547A1, “Use of a layer consisting of hydrophobic linear, or two-dimensional polycyclic aromatics as a barrier layer or an encapsulation and electric components constructed with a layer of this type and comprising organic polymers” (priority 2003, published 2007)

Tests used:
[1] = Chronic toxicity, rectal suppositories: biochemical indexes of blood serum; settings: male rats, 1 month
Protocol: (§1) The experiments were conducted on inbred rats. The experimental animals were selected in groups by a method of random sampling taking into account the body mass as a determining index; 24 males or 24 females for one preparation from compounds 2, 15, 23, 34, 37 investigated in one dose.
(§2) Two doses of preparations used in the experiments: 50 mg/kg and 500 mg/kg. Before the administration, the suppositories were softened by heating in a glass water bath at a temperature of 38-39° C., the soft mass was collected in tuberculin syringe in a volume of 1 ml, a needle with oliva was attached to the syringe, and the preparatory mass was introduced into the rectum of the animal for a depth of 1.5-2.0 cm. The animals of the control group were administered with sterile medical liquid paraffin in a volume corresponding to the volume of the investigated suppository. A complete course of administration of drugs to the animals was two months. A complex of laboratory diagnostic investigations was carried out one month after the beginning of the administration of the preparation to the animal—in a middle of the course (8 animals), two months after ending the course (8 animals) and three months after ending the recovery period of one month (8 animals). The mass of the body of the rats in the first month of administration of the preparation was determined weekly, and then once in two weeks. On the basis of the dynamics of an index of the mass of the animal body, the volume of preparation being administered was corrected taking into account the test dose.

[2] = Chronic toxicity, rectal suppositories: indexes of peripheral blood; settings: male rats; for Basophiles / Juveniles: 1 month/2 months (one value given)
Protocol: as §1, §2

[3] = test system: aggregation of thrombocytes; test: ADP-induced aggregation of thrombocytes after intravenous administration (in vivo); design: species or system rabbit
Protocol: The experiments were carried out on male rabbits of the “Chinchilla” breed having a mass of 2.7±0.3 kg. 18-24 hours prior to the experiment they were deprived of feed while preserving free access to water.
To obtain plasma enriched with thrombocytes, blood was taken from a cut of a marginal vein of the rabbit ear, the sample was stabilized with 3.8% of sodium citrate solution in a ratio of 9:1 and centrifuged at 200 g (1000 rev/min) for 10 minutes. The top supernatant layer enriched with thrombocytes was transferred by an automatic dropper into a silicone test tube and kept at 37° C. The plasma enriched with thrombocytes contained, on the average, […]. If this content exceeded the specified 3×10^8 blood platelets in 1 liter, this sample was diluted to the necessary concentration with plasma deprived of thrombocytes, which was obtained by centrifuging blood at 650 g during 10 minutes.
The measurements of the optical density of the samples were made on two-channel aggregometer of the “Chronolog” Company (USA). A flask containing 490 mkl of plasma rich with thrombocytes was placed in a device, into which a magnetic agitator covered with Teflon was lowered. The index of maximum amplitude of aggregation (MA) in percent of a fall of the plasma optical density under effect of the aggregation inductor was recorded. The control index MA of plasma was compared with the MA of plasma incubated for 3 minutes with different concentrations of the compounds: from 10^−3 to 10^−7 in vitro experiments or with plasma obtained 15, 30, 60 and 120 minutes after intravenous administration of different doses of the compounds in vivo experiments.
The process of aggregation of thrombocytes was recorded with the help of a computer; on the monitor screen the there were depicted curves reflecting changes of the optical density of the plasma enriched which was taken as a standard 100% compared to the optical density of the non-thrombocyte plasma taken for 0% content of thrombocytes.
The antiaggregative capability of compounds 2, 15, 21, 37, according to the invention was tested in experiments in vivo. Introduced to the test animals intravenously were an aggregation inductor ADP at a concentration of 10^−5 M was and then the compounds according to the invention. The doses of the compounds were in a range from 15 to 60 mg/kg.
For leveling the different effects of the compounds in different days due the ambient temperature, humidity and other parameters, 2 animals of each series were taken for experiments every day. Under “series” there is understood a group of 6 animals used for studying one of the doses of the compounds.
The blood for obtaining plasma enriched with thrombocytes was taken from marginal vein of the rabbit ear: in the control group—directly before introducing the tested compounds; in investigated groups—15 minutes after introducing these compounds and then after 30, 60, 120 minutes and so on up to the moment when the effect of suppression of aggregation disappeared.
The quantity of thrombocytes was counted before the experiment and at the end thereof in each plasma sample.

[4] = suppositories 50 mg/kg, 1 month
[5] = suppositories 50 mg/kg, 2 months
[6] = suppositories 500 mg/kg, 1 month
[7] = suppositories 500 mg/kg, 2 months

`Nc1ccnc2c(=O)n([C@@H]3O[C@H](CO)[C@@H](O)[C@H]3O)[nH]c(=O)c12` [Compound 2, 4-amino-7-(β-D-ribofuranosile)pyrido[2,3-d]-6H-pyridazine-5,8-dione] showed an ALT ([1]; suppositories 50 mg/kg) of 10.84 ± 2.02 unit/l, an AST ([1]; suppositories 50 mg/kg) of 20.41 ± 3.06 unit/1 and an Alkalinous phosphatase ([1]; suppositories 50 mg/kg) of 42.12 ± 4.23 unit/1. The Bilirubin ([1]; suppositories 50 mg/kg) was 44.38 ± 4.12, the Cholesterol ([1]; suppositories 50 mg/kg) was 2.77 ± 0.71 mmol/L and the Creatinine ([1]; suppositories 50 mg/kg) was 47.38 ± 3.26 mkmol/l. It also gave a Glucose ([1]; suppositories 50 mg/kg) of 9.85 ± 0.37 mM, a Total protein ([1]; suppositories 50 mg/kg) of 87.34 ± 5.56 g/L and a Urea ([1]; suppositories 50 mg/kg) of 11.02 ± 0.73. The ALT ([1]; suppositories 500 mg/kg) was 11.23 ± 1.70 unit/l, the AST ([1]; suppositories 500 mg/kg) was 20.13 ± 2.95 unit/1 and the Alkalinous phosphatase ([1]; suppositories 500 mg/kg) was 43.4 ± 2.12 unit/1. It also gave a Bilirubin ([1]; suppositories 500 mg/kg) of 42.56 ± 7.56, a Cholesterol ([1]; suppositories 500 mg/kg) of 2.96 ± 0.52 mmol/L and a Creatinine ([1]; suppositories 500 mg/kg) of 49.87 ± 8.12 mkmol/l. The Glucose ([1]; suppositories 500 mg/kg) was 10.2 ± 0.74 mM, the Total protein ([1]; suppositories 500 mg/kg) was 70.84 ± 7.47 g/L and the Urea ([1]; suppositories 500 mg/kg) was 11.30 ± 0.80. For the same molecule, the “Average volume of erythrocytes” value [2, 4] was 83.4 ± 1.4 Mkm^3, the “Coagulation, time” value [2, 4] was 145 ± 16 s and the Eosinophiles [2, 4] was 3.4 ± 0.6%. It also gave an Erythrocytes [2, 4] of 5.60 ± 2 mln/mm^3, a Haematocrite [2, 4] of 47.8 ± 1.3% and a Hemoglobin [2, 4] of 10.5 ± 0.1 mmol/L. For the same molecule, the Leukocyte [2, 4] was 16.0 ± 1.4 thousand/mm^3, the REE [2, 4] was 1.9 ± 0.3 mm/h and the Reticulocytes [2, 4] was 2.8 ± 0.2/2.8 ± 0.2%. For the same molecule, the Stab neutrophil [2, 4] was 0.8 ± 0.3%, the Thrombocytes [2, 4] was 659 ± 26 and the Basophiles ([2]; suppositories 50 mg/kg) was 0%. For the same molecule, the Juveniles ([2]; suppositories 50 mg/kg) was 0%, the “Average volume of erythrocytes” value [2, 5] was 77.9 ± 2.1 Mkm^3 and the “Coagulation, time” value [2, 5] was 322 ± 18 s. The Eosinophiles [2, 5] was 4.2 ± 0.8%, the Erythrocytes [2, 5] was 6.1 ± 0.1 mln/mm^3 and the Haematocrite [2, 5] was 47.9 ± 1.5%. The Hemoglobin [2, 5] was 11.1 ± 0.1 mmol/L, the Leukocyte [2, 5] was 19.3 ± 1.6 thousand/mm^3 and the REE [2, 5] was 1.7 ± 0.1 mm/h. For the same molecule, the Reticulocytes [2, 5] was 2.8 ± 0.2/2.8 ± 0.2%, the Stab neutrophil [2, 5] was 1.7 ± 0.3% and the Thrombocytes [2, 5] was 566 ± 20. For the same molecule, the “Average volume of erythrocytes” value [2, 6] was 85.2 ± 1.2 Mkm^3, the “Coagulation, time” value [2, 6] was 149 ± 11 s and the Eosinophiles [2, 6] was 3.2 ± 0.9%. For the same molecule, the Erythrocytes [2, 6] was 5.6 ± 0.1 mln/mm^3, the Haematocrite [2, 6] was 47.5 ± 1.6% and the Hemoglobin [2, 6] was 10.6 ± 0.1 mmol/L. For the same molecule, the Leukocyte [2, 6] was 15.6 ± 0.8 thousand/mm^3, the REE [2, 6] was 2.1 ± 0.3 mm/h and the Reticulocytes [2, 6] was 2.9 ± 0.3%. It also gave a Stab neutrophil [2, 6] of 0.9 ± 0.2%, a Thrombocytes [2, 6] of 681 ± 26 and a Basophiles ([2]; suppositories 500 mg/kg) of 0%. For the same molecule, the Juveniles ([2]; suppositories 500 mg/kg) was 0%, the “Average volume of erythrocytes” value [2, 7] was 72.0 ± 2.5 Mkm^3 and the “Coagulation, time” value [2, 7] was 305 ± 13 s. The Eosinophiles [2, 7] was 4.8 ± 1.6%, the Erythrocytes [2, 7] was 6.5 ± 0.1 mln/mm^3 and the Haematocrite [2, 7] was 50.3 ± 2.0%. It also gave a Hemoglobin [2, 7] of 12.3 ± 0.3 mmol/L, a Leukocyte [2, 7] of 18.6 ± 1.9 thousand/mm^3 and an REE [2, 7] of 1.9 ± 0.1 mm/h. For the same molecule, the Reticulocytes [2, 7] was 3.5 ± 0.2%, the Stab neutrophil [2, 7] was 1.1 ± 0.3% and the Thrombocytes [2, 7] was 583 ± 25. For the same molecule, the “MA, %, After 15 minutes” value ([3]; dose 15.0 mg/kg intravenously) was 44.2 ± 2.0 %, the “MA, %, After 30 minutes” value ([3]; dose 15.0 mg/kg intravenously) was 42.2 ± 1.6 % and the “MA, %, After 60 minutes” value ([3]; dose 15.0 mg/kg intravenously) was 46.9 ± 1.7 %. The “MA, %, After 120 minutes” value ([3]; dose 15.0 mg/kg intravenously) was 49.2 ± 2.0%, the “MA, %, After 15 minutes” value ([3]; dose 30.0 mg/kg intravenously) was 45.3 ± 2.0 % and the “MA, %, After 30 minutes” value ([3]; dose 30.0 mg/kg intravenously) was 43.7 ± 1.7 %. For the same molecule, the “MA, %, After 60 minutes” value ([3]; dose 30.0 mg/kg intravenously) was 40.1 ± 2.2 %, the “MA, %, After 120 minutes” value ([3]; dose 30.0 mg/kg intravenously) was 59.7 ± 2.2% and the “MA, %, After 15 minutes” value ([3]; dose 60.0 mg/kg intravenously) was 45.2 ± 1.2 %. For the same molecule, the “MA, %, After 30 minutes” value ([3]; dose 60.0 mg/kg intravenously) was 43.6 ± 2.0 %, the “MA, %, After 60 minutes” value ([3]; dose 60.0 mg/kg intravenously) was 47.8 ± 1.5% and the “MA, %, After 120 minutes” value ([3]; dose 60.0 mg/kg intravenously) was 48.0 ± 1.2%.
